Measured values from patent publication US20180344715A1, “WNT/BETA-CATENIN SIGNAL TRANSDUCTION INHIBITORS AND THEIR USE IN TREATMENT OR PREVENTION OF DISEASES AND CONDITIONS LINKED WITH SAID TRANSDUCTION” (BERGEN TEKNOLOGIOVERFORING AS, priority 2015, published 2018).

Assays:
HCT116 cells = experiment: EdU label release assay, HCT116; type: cell-based; details: HCT116, 5 μM, 3 days
Procedure: Two days later, cells were seeded singly onto 12 mm glass coverslips in 24-well plates. One day after, EdU was detected using the Click-iT® Plus EdU Alexa Fluor 488 Imaging Kit (Life Technologies, C10637) according to the manufacturer's protocol. For double staining of EdU and other proteins, the EdU stained cells were further used for immunofluorescence staining as described above. Intensity of EdU staining in paired cells were quantified by Photoshop CS6 software, unequal EdU distribution was considered when paired cells had intensity ratio higher than 2.

MED23 and β-catenin = biological target: T1, MED23 and β-catenin (Homo sapiens, UniProt Q9ULK4); experiment: Co-immunoprecipitation of MED23 and β-catenin; type: cell-based; details: SW480, 5 μM, 4 hours
T1 construct: endogenous in cells; host or cells: SW480
T1 sequence (Q9ULK4 1-1368): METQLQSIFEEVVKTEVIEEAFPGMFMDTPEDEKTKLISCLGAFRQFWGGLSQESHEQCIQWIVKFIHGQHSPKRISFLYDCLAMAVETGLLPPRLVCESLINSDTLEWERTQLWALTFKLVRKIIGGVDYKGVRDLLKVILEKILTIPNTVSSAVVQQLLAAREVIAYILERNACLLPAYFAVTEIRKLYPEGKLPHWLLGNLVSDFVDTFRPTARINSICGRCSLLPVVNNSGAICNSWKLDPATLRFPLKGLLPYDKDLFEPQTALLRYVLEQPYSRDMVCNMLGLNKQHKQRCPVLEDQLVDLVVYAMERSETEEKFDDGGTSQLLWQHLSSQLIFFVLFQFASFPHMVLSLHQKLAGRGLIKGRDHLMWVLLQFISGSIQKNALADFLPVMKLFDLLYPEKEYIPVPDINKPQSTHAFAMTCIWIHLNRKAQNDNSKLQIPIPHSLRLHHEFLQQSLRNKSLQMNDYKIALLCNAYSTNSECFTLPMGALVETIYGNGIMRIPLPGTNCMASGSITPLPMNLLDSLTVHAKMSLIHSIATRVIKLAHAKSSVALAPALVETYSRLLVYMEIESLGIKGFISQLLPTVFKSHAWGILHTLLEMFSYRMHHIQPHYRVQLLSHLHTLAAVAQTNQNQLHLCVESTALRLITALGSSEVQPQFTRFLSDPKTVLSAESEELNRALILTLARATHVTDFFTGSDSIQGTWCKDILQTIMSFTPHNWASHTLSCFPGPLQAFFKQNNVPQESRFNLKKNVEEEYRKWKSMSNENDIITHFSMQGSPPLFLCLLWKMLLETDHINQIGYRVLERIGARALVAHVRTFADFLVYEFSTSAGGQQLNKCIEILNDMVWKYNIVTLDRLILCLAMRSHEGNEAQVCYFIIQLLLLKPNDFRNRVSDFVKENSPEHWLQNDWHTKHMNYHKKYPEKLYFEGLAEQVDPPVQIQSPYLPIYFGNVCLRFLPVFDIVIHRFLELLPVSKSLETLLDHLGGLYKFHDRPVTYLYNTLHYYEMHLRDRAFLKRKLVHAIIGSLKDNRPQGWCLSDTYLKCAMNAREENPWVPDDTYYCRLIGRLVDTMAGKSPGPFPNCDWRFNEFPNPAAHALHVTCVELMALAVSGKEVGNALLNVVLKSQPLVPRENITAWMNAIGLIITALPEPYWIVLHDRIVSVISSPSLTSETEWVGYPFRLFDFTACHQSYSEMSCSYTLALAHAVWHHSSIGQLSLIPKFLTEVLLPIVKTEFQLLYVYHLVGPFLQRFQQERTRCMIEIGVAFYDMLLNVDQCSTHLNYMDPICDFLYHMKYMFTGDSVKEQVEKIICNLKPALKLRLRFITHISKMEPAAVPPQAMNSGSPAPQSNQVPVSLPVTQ
Procedure: Co-IP was done following the protocol of Dynabeads Co-Immunoprecipitation Kit (Life Technologies, 14321D). […] After saving 2% samples for input control, cell lysates were equally divided between 3 tubes, incubated with 3 mg Dynabeads and 21 μg mouse IgG (15381, Sigma), primary antibody against MED23 (BD550429, clone D27-1805, BD Biosciences) and β-catenin (ab22656, clone 12F7, Abcam), respectively. Input controls and proteins pulled down with individual antibodies were examined by Western blotting.

Wnt target genes = experiment: RT-PCR of Wnt target genes in 293FT cells; type: cell-based, human; details: 24 hours
Text: Reverse transcription (RT) and real-time quantitative PCR (qPCR) were done as previously described (Ke, X. S. et al., 2011, Exp Cell Res 317, 234-247). For qPCR using TagMan Universal PCR Master Mix (Life technologies, 4304437), TagMan assays used for human AXIN2 (Hs00610344_m1), LEF1 (Hs01547250_m1), BMP4 (Hs03676628_s1), CTNNB1 (Hs01076483_m1), VEGFR1 (Hs01052961_m1), MED23 (Hs00606608_m1), SHPRH (Hs00542737_m1) and ACTB1 (Hs99999903_m1) were obtained from Life technologies. For RT-PCR using RT^2 SYBR Green/ROX PCR Master Mix (QIAGEN, 330520), primer oligos were made by Eurogentec (Liege, Belgium).

SW480 cells = experiment: Soft agar colony-formation assay, SW480; type: cell-based; details: 10 days
Procedure: The soft agar colony-formation assay was performed using the CellTransformation Assays kit (catalog no. CBA-130; Cell Biolabs, Inc.) according to the recommended protocol. […] Medium containing drugs was replaced every 3 d. For the clonogenic assay, positively transfected cells (wild-type and mutant GFP-SHPRH and control GFP) were enriched by FACS and were seeded in six-well plates at a density of 3,000 cells per well. Medium was changed every 3 d. On the last day colony growth was quantified by crystal violet staining and measurement of OD at 590 nm.

CNC(=O)c1ccccc1Sc1ccc2c(/C=C/c3ccccn3)n[nH]c2c1 [axitinib, N-Methyl-2-[[3-[(E)-2-pyridin-2-ylethenyl]-1H-indazol-6-yl]sulfanyl]benzamide]
EdU ACD (HCT116 cells): increased significantly | endogenous association of MED23 and β-catenin (MED23 and β-catenin): disrupted | mRNA levels of Wnt target genes (Wnt target genes): decreases | colony growth (SW480 cells): strongly and dose-dependently inhibited
